From PMC3445516 (PLoS ONE, 2012) come the findings set out here.

Each structure is given as a SMILES string. Where two headings read alike, the source gives them in different places. Some results are limits rather than exact numbers.

Holding throughout (test): Ambit kinase profiling, competition binding
One test concerns the target T1, CAMKIα (Homo sapiens, UniProt Q14012).
T1 construct: purchased Ambit Biosciences (KINOMEscan)
The following applies: for competition: CAMKIα, 10 µM. As for the experimental part:
(§1) Also included in the kinase profile are four isoforms of PKC (δ, ε, η, θ) and eight isoforms of CAMKs (CAMKIα, δ, γ; CAMKIIα, β, δ, γ; CAMK4).
(§2) The global kinase profiling experiment was performed by Ambit Biosciences.

In another test the target is T2, CAMKIγ (Homo sapiens, UniProt Q96NX5).
T2 construct: purchased Ambit Biosciences (KINOMEscan)
The settings on record: for competition: CAMKIγ, 10 µM. Here is the method: as §1, §2

Another test concerns the target T3, CAMKIδ (Homo sapiens, UniProt Q8IU85).
T3 construct: purchased Ambit Biosciences (KINOMEscan)
The following applies: for competition: CAMKIδ, 10 µM. As for the experimental part: as §1, §2

The next test has as its target T4, EGFR(L861Q) (Homo sapiens, UniProt P00533, L861Q).
T4 construct: purchased Ambit Biosciences (KINOMEscan)
The following applies: for % Competition: 10 µM. As for the experimental part:
as §1, §2

The target of a further test is T5, ERK2 (Homo sapiens, UniProt P28482).
T5 construct: purchased Ambit Biosciences (KINOMEscan)
Here is the method: as §1, §2

The target in another test is T6, ERK8 (Homo sapiens, UniProt Q8TD08).
T6 construct: purchased Ambit Biosciences (KINOMEscan)
T6 sequence (Q8TD08 1-544): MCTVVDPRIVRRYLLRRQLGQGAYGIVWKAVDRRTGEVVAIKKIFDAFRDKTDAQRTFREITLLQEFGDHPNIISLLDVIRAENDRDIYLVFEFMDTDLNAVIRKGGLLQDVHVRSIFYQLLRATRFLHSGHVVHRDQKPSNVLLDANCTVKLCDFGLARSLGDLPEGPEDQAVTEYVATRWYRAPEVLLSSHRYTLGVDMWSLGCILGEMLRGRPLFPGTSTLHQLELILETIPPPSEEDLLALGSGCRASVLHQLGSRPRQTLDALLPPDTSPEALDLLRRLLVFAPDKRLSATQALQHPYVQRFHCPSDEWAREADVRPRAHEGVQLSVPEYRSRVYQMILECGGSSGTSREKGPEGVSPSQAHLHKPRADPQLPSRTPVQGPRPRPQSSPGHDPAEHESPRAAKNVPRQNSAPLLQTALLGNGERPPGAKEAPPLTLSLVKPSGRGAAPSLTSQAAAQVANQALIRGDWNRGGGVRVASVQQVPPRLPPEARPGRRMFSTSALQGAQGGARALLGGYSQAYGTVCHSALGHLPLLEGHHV
As for the experimental part: as §1, §2

Another test addresses T7, LATS1 (Homo sapiens, UniProt O95835).
T7 construct: purchased Ambit Biosciences (KINOMEscan)
T7 sequence (O95835 1-1130): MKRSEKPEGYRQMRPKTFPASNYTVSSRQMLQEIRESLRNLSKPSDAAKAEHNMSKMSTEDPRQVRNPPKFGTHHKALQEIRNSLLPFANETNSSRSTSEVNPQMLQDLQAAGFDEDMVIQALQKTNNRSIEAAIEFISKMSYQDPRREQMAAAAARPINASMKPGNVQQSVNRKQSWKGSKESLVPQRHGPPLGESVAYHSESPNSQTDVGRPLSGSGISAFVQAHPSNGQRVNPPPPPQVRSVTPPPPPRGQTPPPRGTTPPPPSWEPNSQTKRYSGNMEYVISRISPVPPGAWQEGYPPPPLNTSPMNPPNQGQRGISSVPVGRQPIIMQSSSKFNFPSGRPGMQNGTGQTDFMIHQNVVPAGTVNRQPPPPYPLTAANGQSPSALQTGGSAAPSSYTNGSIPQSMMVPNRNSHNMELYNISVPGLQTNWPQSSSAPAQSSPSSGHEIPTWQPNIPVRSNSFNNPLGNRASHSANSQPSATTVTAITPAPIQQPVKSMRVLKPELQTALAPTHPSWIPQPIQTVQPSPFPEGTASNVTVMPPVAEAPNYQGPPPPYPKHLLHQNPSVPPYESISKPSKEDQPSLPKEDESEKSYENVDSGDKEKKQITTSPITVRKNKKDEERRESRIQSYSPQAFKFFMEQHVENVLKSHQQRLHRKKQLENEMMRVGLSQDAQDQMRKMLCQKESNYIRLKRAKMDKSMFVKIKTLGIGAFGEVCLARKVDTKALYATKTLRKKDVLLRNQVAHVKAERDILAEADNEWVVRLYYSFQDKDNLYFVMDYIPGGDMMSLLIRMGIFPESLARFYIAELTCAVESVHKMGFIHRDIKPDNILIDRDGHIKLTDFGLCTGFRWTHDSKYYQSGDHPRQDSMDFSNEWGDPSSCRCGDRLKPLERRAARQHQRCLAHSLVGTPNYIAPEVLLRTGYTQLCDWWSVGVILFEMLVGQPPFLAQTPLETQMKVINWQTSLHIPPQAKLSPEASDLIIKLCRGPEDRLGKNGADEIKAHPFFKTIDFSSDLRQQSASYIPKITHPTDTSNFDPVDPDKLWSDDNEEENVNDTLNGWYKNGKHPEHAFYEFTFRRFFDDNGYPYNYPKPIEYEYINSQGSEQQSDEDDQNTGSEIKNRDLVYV
As for the experimental part:
as §1, §2

Another test addresses T8, PRKCQ (Homo sapiens, UniProt Q04759).
T8 construct: purchased Ambit Biosciences (KINOMEscan)
As for the experimental part:
as §1, §2

T8 sequence (Q04759 whole entry): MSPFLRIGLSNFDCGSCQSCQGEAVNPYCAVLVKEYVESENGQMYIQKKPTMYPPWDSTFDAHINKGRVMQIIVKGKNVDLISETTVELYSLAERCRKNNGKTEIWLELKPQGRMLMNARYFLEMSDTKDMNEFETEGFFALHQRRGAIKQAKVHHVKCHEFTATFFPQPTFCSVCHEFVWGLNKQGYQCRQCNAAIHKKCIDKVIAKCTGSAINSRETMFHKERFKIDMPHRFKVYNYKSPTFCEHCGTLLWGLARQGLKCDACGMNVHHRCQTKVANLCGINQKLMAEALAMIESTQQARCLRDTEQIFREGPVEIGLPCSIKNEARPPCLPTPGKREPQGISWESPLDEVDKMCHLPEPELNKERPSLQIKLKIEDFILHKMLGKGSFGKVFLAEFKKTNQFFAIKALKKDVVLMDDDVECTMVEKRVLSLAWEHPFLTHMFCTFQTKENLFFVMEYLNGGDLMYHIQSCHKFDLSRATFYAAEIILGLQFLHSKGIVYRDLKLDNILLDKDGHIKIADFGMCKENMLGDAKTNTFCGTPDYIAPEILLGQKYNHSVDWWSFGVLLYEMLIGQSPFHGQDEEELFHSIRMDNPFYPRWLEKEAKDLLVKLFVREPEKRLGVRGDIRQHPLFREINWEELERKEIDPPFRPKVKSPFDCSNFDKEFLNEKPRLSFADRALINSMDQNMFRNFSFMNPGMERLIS
T1 sequence (Q14012 whole entry): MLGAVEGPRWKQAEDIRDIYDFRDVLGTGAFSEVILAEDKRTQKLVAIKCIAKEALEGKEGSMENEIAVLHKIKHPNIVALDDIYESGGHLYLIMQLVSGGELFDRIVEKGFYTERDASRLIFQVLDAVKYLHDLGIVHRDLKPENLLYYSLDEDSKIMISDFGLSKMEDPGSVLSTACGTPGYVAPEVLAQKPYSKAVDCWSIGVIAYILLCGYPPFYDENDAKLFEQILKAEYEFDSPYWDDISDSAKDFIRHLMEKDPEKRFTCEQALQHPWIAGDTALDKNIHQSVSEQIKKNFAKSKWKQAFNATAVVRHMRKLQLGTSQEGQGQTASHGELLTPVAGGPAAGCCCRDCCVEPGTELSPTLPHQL
T5 sequence (P28482 whole entry): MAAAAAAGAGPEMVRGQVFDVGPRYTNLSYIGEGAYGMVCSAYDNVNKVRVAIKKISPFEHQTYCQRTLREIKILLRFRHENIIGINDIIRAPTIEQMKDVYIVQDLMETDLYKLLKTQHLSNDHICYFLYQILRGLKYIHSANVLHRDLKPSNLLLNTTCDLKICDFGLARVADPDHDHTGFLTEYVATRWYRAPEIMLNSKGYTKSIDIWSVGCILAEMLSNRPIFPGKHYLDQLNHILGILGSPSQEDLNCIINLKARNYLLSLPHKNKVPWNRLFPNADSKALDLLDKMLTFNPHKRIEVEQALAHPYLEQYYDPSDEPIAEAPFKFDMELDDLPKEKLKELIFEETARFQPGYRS
T3 sequence (Q8IU85 whole entry): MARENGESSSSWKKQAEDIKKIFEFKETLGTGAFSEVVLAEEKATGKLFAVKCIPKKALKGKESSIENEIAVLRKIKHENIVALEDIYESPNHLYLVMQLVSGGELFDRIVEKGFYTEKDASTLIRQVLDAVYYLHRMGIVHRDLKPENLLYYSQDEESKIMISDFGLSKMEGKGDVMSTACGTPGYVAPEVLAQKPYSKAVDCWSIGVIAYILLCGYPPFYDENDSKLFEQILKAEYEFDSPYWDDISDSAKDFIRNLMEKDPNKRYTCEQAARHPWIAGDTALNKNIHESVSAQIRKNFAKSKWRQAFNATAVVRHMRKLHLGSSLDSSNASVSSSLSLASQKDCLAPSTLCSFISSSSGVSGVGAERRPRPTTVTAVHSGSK
T2 sequence (Q96NX5 whole entry): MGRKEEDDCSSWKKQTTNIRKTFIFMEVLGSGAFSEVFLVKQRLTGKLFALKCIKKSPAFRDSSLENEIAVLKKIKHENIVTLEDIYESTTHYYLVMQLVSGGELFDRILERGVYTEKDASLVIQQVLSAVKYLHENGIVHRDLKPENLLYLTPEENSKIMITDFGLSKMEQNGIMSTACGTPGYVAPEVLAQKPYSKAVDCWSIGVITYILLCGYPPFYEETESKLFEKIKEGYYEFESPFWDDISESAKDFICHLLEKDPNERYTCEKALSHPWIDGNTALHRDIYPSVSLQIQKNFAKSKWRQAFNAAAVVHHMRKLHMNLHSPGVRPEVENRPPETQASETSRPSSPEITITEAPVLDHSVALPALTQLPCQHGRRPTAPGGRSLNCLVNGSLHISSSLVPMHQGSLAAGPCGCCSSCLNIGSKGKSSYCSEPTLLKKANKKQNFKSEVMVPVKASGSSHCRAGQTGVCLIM

Take `Fc1ccc(-c2c(-c3ccncc3)[nH]c3nccnc23)cc1` [Compound 122]: the competition on CAMKIα, on CAMKIγ and on CAMKIδ was less than 50% in each case. In addition, at EGFR(L861Q), the “% Competition” value was found to be 97%. In addition, the inhibition at 10 µM on ERK2 (ERK2, 10 µM, read-out: % Competition) worked out at 87%; on ERK8 (ERK8, 10 µM, read-out: % Competition), 98%; on LATS1 (LATS1, 10 µM, read-out: % Competition), 68%; at PRKCQ (PRKCQ (PKC θ), 10 µM, read-out: % Competition), 78%.
For the molecule `CC(O)CNc1cc(-c2[nH]c3cccnc3c2-c2ccc(F)cc2)ccn1` (stereo not shown) [Compound 140], the competition at CAMKIα, at CAMKIγ and on CAMKIδ was less than 50% in each case. In addition, the “% Competition” value at EGFR(L861Q) is 87%; at PRKCQ (PRKCQ (PKC θ), 10 µM) it was less than 50%. Besides, the inhibition at 10 µM at ERK2 (read-out: % Competition), at ERK8 (read-out: % Competition), on LATS1 (read-out: % Competition) and at PRKCQ (read-out: % Competition) was less than 50% in each case.
With `Fc1ccc(-c2c(-c3ccncc3)[nH]c3nccnc23)cc1` [RO1155697-000-005], the inhibition at 10 µM on CAMKIα (CAMK1, compound concentration 10 uM, read-out: Percent Competition) was less than 50%; at CAMKIγ (CAMK1G, compound concentration 10 uM, read-out: Percent Competition), less than 50%; at CAMKIδ (CAMK1D, compound concentration 10 uM, read-out: Percent Competition), less than 50%; at ERK2 (ERK2, compound concentration 10 uM, read-out: Percent Competition), 87%; at ERK8 (ERK8, compound concentration 10 uM, read-out: Percent Competition), 98%; at LATS1 (LATS1, compound concentration 10 uM, read-out: Percent Competition), 68%. Further, the inhibition at 10 µM on PRKCQ (PRKCQ, compound concentration 10 uM, read-out: Percent Competition) worked out at 78%. The “Percent Competition” value at EGFR(L861Q) (compound concentration 10 uM) was found to be 97%.
